Experimental data as given in US6300501A, “Histidine-(N-benzyl glycinamide) inhibitors of protein farnesyl transferase” (Warner-Lambert Company, priority 1998, dated 2001).
Like-named read-outs stand apart in the source and are kept apart here.

Legend:
[1] = biological target: T1, SF9 affinity purified rat farnesyl protein transferase (Rattus norvegicus, UniProt Q02293+Q04631); experiment: PFT inhibitory activity (radiolabeled farnesyl pyrophosphate, streptavidin bead assay); assay type: biochemical
T1 construct: made in house; host or cells: Sf9 insect cells (baculovirus system inferred from b7)
Experimental: The protein:farnesyl transferase (PFT) or farnesyl protein transferase (FPT) inhibitory activity of compounds of the present invention were assayed in HEPES buffer (pH 7.4) containing 5 mM potassium phosphate and 20 μM ZnCl2. The solution also contained 5 mM DTT (dithiothreitol), 5 mM MgCl2, and 0.1% PEG 8000. Assays were performed in 96 well plates (Wallec) and employed solutions composed of varying concentrations of a compound of the present invention in 100% DMSO (dimethylsulfoxide). Upon addition of both substrates, radiolabeled farnesyl pyrophosphate ([1^3 H], specific activity 15-30 Ci/mmol, final concentration 134 nM) and (biotinyl)-Ahe-Thr-Lys-Cys-Val-Ile-Met ([3aS[3a alpha, 4 beta, 6a alpha]-hexahydro-2-oxo-1H-thieno[3,4-d]imidazole-5-pentanoic acid]-[7-aminoheptanoic acid]-Thr-Lys-Cys-Val-Ile-Met) (Ahe is 7-aminoheptanoic acid, Thr is threonine, Lys is lysine, Cys is cysteine, Val is valine, Ile is isoleucine and Met is methionine) (final concentration 0.2 μM), the enzyme reaction was started by addition of SF9 affinity purified rat farnesyl protein transferase. After incubation at 30° C. for 30 minutes, the reaction was terminated by diluting the reaction 2.5-fold with a stop buffer containing 1.5 M magnesium acetate, 0.2 M H3 PO4, 0.5% BSA (bovine serum albumin), and strepavidin beads (Amersham) at a concentration of 1.3 mg/mL. After allowing the plate to settle for 30 minutes at room temperature, radioactivity was quantitated on a microBeta counter (Model 1450, Wallec). The assay was also carried out without 5 mM potassium phosphate.

[2] = tested on: ras farnesylation in ras-transformed cells; experiment: Gel shift assay; assay type: cell-based; details: ras-transformed cells, 18-hour incubation; read-out: Gel Shift (μM) MED (minimal effective dose to observe inhibition of ras farnesylation)
Experimental: Twenty-four hours after planting 2×10^6 ras-transformed cells per treatment condition, the farnesylation inhibitor is added at varying concentrations. Following an 18-hour incubation period, cells are lysed in phosphate-buffered saline containing 1% Triton X-100, 0.5% sodium deoxycholate, and 0.1% SDS (sodium dodecyl sulfate), pH 7.4 in the presence of several protease inhibitors (PMSF (phenylmethylsulfonylfluoride), antipain, leupeptin, pepstatin A, and aprotinin all at 1 μg/mL). Ras protein is immunoprecipitated from the supernatants by the addition of 3 μg v-H-ras Ab-2 (Y13-259 antibody from Oncogene Science). After overnight immunoprecipitation, 30 μL of a 50% protein G-Sepharose slurry (Pharmacia) is added followed by 45-minute incubation. Pellets are resuspended in 2× tris-glycine loading buffer (Novex) containing 5% β-mercaptoethanol and then denatured by 5 minutes boiling prior to electrophoresis on 14% Tris-glycine SDS gels. Using Western transfer techniques, proteins are transferred to nitrocellulose membranes followed by blocking in blocking buffer. Upon overnight incubation with primary antibody (pan-ras Ab-2 from Oncogene Science), an antimouse HRP (horse radish peroxidase) conjugate secondary antibody (Amersham) is employed for detection of the ras protein. Blots are developed using ECL(enhanced chemiluminescence) techniques (Amersham).

[3] = tested on: H61 cells: NIH transformed 3T3 H-ras cells; experiment: Clonogenic assay (6 well plates, soft agar); assay type: cell-based; details: colonies counted after Day 13, read-out: Clonogenic Assay IC50
Experimental: Clonoaenic Assay (6 well lates)
Sometime previous to setting up an actual test:
1. Make up 1.5% Bacto Agar in Milli-Q water and autoclave.
2. Make up 500 mL 2× DMEM-HG without phenol red by combining the following:
1 bottle DMEM base powder (Sigma D-5030)
Adjust pH to 7.1 with HCL; filter sterilize.
1. Set up makeshift water bath (beaker of water with thermometer, on hot plate) in the hood. Keep water temperature between 37° C. to 43° C.
2. […] 1.5% Bacto Agar for approximately 2 minutes on high, or until completely melted. Then let it cool somewhat before using it. (You can keep it from resolidifying by setting the bottle on the hot plate.) […]
3. Bottom Layer (0.6% agar) Top Layer (0.3% agar)
20% calf serum 20% calf serum
40% Bacto Agar (1.5%) 20% Bacto Agar (1.5%)
Depending on the volume of each layer needed, use either 50 mL conical tubes or 200 mL turnip tubes which can be floated in the "water bath".
4. Add 1 mL of bottom layer agar/medium to each well: deliver 1 mL warm agar/medium to a well; then using the tip of the pipet, spread the agar/medium around to completely cover the bottom. Repeat with next well.
5. Allow the plates to set at room temperature for about 5 minutes until the bottom layer solidifies.
6. Label sterile Falcon 2054 (12×75 mm) tubes and add appropriate volume of drug solutions into them.
7. Aliquot 4 AL of DMSO or drug solution per 1 mL of agar/medium to appropriate tubes; then add the agar/medium/cells to each tube. Always add 1 mL more than will actually be needed. Mix up and down in the pipet (gently); then deliver 1 mL to the center of each well. The upper layer is less viscous, so it will generally spread out over the bottom layer unaided. If necessary, rotate the plane of the plate gently to spread the top layer evenly over the bottom layer.
8. Let plates set for 5 or 10 minutes at room temperature to solidify, then put into 5% CO2, 37° C. incubator.
9. On Day 13, add 0.5 mL of INT (tetrazolium 1 mg/mL in Milli-Q H2 O, filter sterilized) and return plates to incubator.

[4] = HEPES buffer pH 7.4, without 5 mM potassium phosphate, read-out: IC50 (μM) Hepes
[5] = HEPES buffer pH 7.4 containing 5 mM potassium phosphate, read-out: IC50 (μM) 5 mM K3 PO4 -2

T1 sequence (Q02293 whole entry, one chain of several): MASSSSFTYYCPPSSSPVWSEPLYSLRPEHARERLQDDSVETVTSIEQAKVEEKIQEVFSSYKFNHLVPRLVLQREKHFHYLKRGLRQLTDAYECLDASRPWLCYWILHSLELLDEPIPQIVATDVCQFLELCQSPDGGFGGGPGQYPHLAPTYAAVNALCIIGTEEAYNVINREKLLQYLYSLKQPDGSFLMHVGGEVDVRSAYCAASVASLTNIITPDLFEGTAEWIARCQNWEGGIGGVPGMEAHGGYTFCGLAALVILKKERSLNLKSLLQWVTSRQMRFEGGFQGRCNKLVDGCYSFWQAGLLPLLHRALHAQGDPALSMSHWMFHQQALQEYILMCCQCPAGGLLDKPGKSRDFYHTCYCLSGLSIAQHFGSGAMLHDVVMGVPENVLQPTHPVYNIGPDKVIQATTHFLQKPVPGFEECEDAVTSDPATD

| Compound | IC50 [1, 4] [µM] | IC50 [1, 5] [µM] | minimal effective concentration [2] [µM] | IC50 ([3]; 312 h) [nM] | IC50 [3] [nM] |
| --- | --- | --- | --- | --- | --- |
| CC(CNC(=O)CN(Cc1ccc(F)cc1)C(=O)[C@H](Cc1c[nH]cn1)NC(=O)OCc1ccccc1)c1ccccc1 (stereo partly drawn) [Example 18, (S)-[1-{(4-Fluoro-benzyl)-[(2-phenyl-propylcarbamoyl)-methyl]-carbamoyl}-2-(1H-imidazole-4-yl)-ethyl]-carbamic Acid Benzyl Ester] | 2.8 | 0.061 | 0.2 | > 1000 |  |
| Cc1ccc(CN(CC(=O)NCC(C)c2ccccc2)C(=O)[C@H](Cc2c[nH]cn2)NC(=O)OCc2ccccc2)cc1 (stereo partly drawn) [Example 19, (S)-(2-(1H-Imidazole-4-yl)-1-{(4-methyl-benzyl)-[(2-phenyl-propylcarbamoyl)-methyl]-carbamoyl}-ethyl)-carbamic Acid Benzyl Ester] | 1.26 | 0.015 | 0.05 | 660 |  |
| COc1ccc(CN(CC(=O)NCC(C)c2ccccc2)C(=O)[C@H](Cc2c[nH]cn2)NC(=O)OCc2ccccc2)cc1 (stereo partly drawn) [Example 20, (S)-(2-(1H-Imidazole-4-yl)-1-{(4-methoxy-benzyl)-[(2-phenyl-propylcarbamoyl)-methyl]-carbamoyl}-ethyl)-carbamic Acid Benzyl Ester] | 1.5 | 0.017 | 0.05 | 460 |  |
| CC(CNC(=O)CN(Cc1ccc(OCc2ccccc2)cc1)C(=O)[C@H](Cc1cnc[nH]1)NC(=O)OCc1ccccc1)c1ccccc1N (some centres unmarked) [Example 21] | 0.16 | 0.008 | 0.05 |  | 300 |
| CC(C)(CNC(=O)CN(Cc1ccc(F)cc1)C(=O)[C@H](Cc1c[nH]cn1)NC(=O)OCc1ccccc1)c1ccccc1 [Example 22, (S)-[1-{(4-Fluoro-benzyl)-[(2-methyl-2-phenyl-propylcarbamoyl)-methyl]-carbamoyl}-2-(1H-imidazole-4-yl)-ethyl]-carbamic Acid Benzyl Ester] | 1.2 | 0.016 | 0.2 | > 1000 |  |
| CC(CNC(=O)CN(Cc1ccccc1)C(=O)[C@H](Cc1c[nH]cn1)NC(=O)OCc1ccccc1)c1ccccc1 (stereo partly drawn) [Example 23, (S)-[1-{Benzyl-[(2-phenyl-propylcarbamoyl)-methyl]-carbamoyl}-2-(1H-imidazole-4-yl)-ethyl]-carbamic Acid Benzyl Ester] | 1.6 | 0.022 | 0.2 | > 1000 |  |
| O=C(CN(Cc1ccc(OCc2ccccc2)cc1)C(=O)[C@H](Cc1c[nH]cn1)NC(=O)OCc1ccccc1)NCC(c1ccccc1)c1ccccc1Cl (stereo partly drawn) [Example 24, (S)-[1-((4-Benzyloxy-benzyl)-{[2-(2-chloro-phenyl)-2-phenyl-ethylcarbamoyl]-methyl}-carbamoyl)-2-(1H-imidazole-4-yl)-ethyl]-carbamic Acid Benzyl Ester] | 0.2 | 0.014 | 0.2 | 820 |  |
| CCC(CC)(CNC(=O)CN(Cc1ccc(OCc2ccccc2)cc1)C(=O)[C@H](Cc1cnc[nH]1)NC(=O)OCc1ccccc1)c1ccccc1 [Example 25, (S)-[1-{(4-Benzyloxy-benzyl)-[(2-ethyl-2-phenyl-butylcarbamoyl)-methyl]-carbamoyl}-2-(3H-imidazole-4-yl)-ethyl]-carbamic Acid Benzyl Ester] | 0.93 | 0.032 | 0.2 | 890 |  |
| CCC(CNC(=O)CN(Cc1ccc(OCc2ccccc2)cc1)C(=O)[C@H](Cc1c[nH]cn1)NC(=O)NCc1ccccc1)c1ccccc1 (stereo partly drawn) [Example 27, (S)-N-(4-Benzyloxy-benzyl)-2-(3-benzyl-ureido)-3-(1H-imidazole-4-yl)-N-[(2-phenyl-butylcarbamoyl)-methyl]-propionamide] | 0.12 | 0.014 | 0.2 | > 1000 |  |
| CC(CNC(=O)CN(Cc1ccccc1Cl)C(=O)[C@H](Cc1c[nH]cn1)NC(=O)OCc1ccccc1)c1ccccc1 (stereo partly drawn) [Example 28, (S)-[1-{(2-Chloro-benzyl)-[(2-phenyl-propylcarbamoyl)-methyl]-carbamoyl}-2-(1H-imidazole-4-yl)-ethyl]-carbamic Acid Benzyl Ester] | 2.6 | 0.043 | 0.2 | 600 |  |
| CC(CNC(=O)CN(Cc1cccc(Cl)c1)C(=O)[C@H](Cc1c[nH]cn1)NC(=O)OCc1ccccc1)c1ccccc1 (stereo partly drawn) [Example 30, (S)-[1-{(3-Chloro-benzyl)-[(2-phenyl-propylcarbamoyl)-methyl]-carbamoyl}-2-(1H-imidazole-4-yl)-ethyl]-carbamic Acid Benzyl Ester] | 0.78 | 0.016 | 0.1 | > 1000 |  |
| CC(C)(CNC(=O)CN(Cc1ccc(Cl)cc1)C(=O)[C@H](Cc1c[nH]cn1)NC(=O)OCc1ccccc1)c1ccccc1 [Example 31, (S)-[1-{(4-Chloro-benzyl)-[(2-methyl-2-phenyl-propylcarbamoyl)-methyl]-carbamoyl}-2-(1H-imidazole-4-yl)-ethyl]-carbamic Acid Benzyl Ester] | 0.52 | 0.014 | 0.1 | > 1000 |  |
| CC(CNC(=O)CN(Cc1ccc(OCc2ccccc2)cc1)C(=O)[C@H](Cc1c[nH]cn1)NC(=O)OCc1ccccc1)c1ccccc1Cl (stereo partly drawn) [Example 32, (S)-[1-((4-Benzyloxy-benzyl)-{[2-(2-chloro-phenyl)-propylcarbamoyl]-methyl}-carbamoyl)-2-(1H-imidazole-4-yl)-ethyl]-carbamic Acid Benzyl Ester] | 0.32 | 0.007 | 0.05 | 360 |  |
| COc1ccccc1CN(CC(=O)NCC(C)c1ccccc1)C(=O)[C@H](Cc1c[nH]cn1)NC(=O)OCc1ccccc1 (stereo partly drawn) [Example 33, (S)-(2-(1H-Imidazole-4-yl)-1-{(2-methoxy-benzyl)-[(2-phenyl-propylcarbamoyl)-methyl]-carbamoyl}-ethyl)-carbamic Acid Benzyl Ester] | 0.5 | 0.009 | 0.05 | 360 |  |
